Measured values taken from ChEMBL document CHEMBL1671815, “A practical use of ligand efficiency indices out of the fragment-based approach: ligand efficiency-guided lead identification of soluble epoxide hydrolase inhibitors” (J Med Chem, 2011).

How the values were obtained:
[1] = test system: Liver microsomes; experiment: Intrinsic clearance in human liver microsome measured per mg of protein; assay type: ADME
[2] = test system: Liver microsomes; experiment: Intrinsic clearance in rat liver microsome measured per mg of protein; assay type: ADME
[3] = molecular target: Cytochrome P450 2C19 (Homo sapiens, UniProt P33261); experiment: Inhibition of CYP2C19; assay type: ADME
[4] = molecular target: T1, Bifunctional epoxide hydrolase 2 (Homo sapiens, UniProt P34913); experiment: Inhibition of human soluble epoxide hydrolase in cell free system
T1 sequence (P34913 whole entry): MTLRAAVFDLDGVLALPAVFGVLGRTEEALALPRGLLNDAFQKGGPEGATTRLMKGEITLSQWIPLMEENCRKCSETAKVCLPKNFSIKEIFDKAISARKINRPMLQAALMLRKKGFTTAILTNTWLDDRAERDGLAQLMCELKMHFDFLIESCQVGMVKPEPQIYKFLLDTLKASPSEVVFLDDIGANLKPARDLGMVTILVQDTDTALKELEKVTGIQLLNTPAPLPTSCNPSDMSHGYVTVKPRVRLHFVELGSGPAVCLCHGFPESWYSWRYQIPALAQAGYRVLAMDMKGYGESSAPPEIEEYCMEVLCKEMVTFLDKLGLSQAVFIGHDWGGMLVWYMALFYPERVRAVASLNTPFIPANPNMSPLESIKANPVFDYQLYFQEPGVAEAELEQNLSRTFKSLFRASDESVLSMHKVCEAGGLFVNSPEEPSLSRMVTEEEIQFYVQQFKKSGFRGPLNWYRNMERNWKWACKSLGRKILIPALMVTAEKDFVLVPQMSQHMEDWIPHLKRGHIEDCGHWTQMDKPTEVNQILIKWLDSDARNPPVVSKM

[5] = molecular target: T2, Bifunctional epoxide hydrolase 2 (Rattus norvegicus, UniProt P80299); experiment: Inhibition of rat soluble epoxide hydrolase in cell free system
T2 sequence (P80299 whole entry): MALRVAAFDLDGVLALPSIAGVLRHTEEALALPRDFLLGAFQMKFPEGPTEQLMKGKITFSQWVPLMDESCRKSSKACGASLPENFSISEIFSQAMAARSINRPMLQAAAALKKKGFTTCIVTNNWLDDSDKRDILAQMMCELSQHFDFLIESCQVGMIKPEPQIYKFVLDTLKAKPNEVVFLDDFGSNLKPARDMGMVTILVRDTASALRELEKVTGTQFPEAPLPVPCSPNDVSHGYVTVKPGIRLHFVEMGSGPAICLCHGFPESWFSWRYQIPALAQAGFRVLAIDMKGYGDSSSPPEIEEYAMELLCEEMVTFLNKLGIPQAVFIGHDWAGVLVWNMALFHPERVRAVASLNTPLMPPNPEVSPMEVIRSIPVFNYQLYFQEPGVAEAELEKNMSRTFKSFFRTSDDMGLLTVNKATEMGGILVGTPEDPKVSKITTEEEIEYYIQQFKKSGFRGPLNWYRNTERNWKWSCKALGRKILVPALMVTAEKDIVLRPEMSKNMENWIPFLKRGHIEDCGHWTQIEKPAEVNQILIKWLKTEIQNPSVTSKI

[6] = molecular target: T1, Bifunctional epoxide hydrolase 2; experiment: Inhibition of soluble epoxide hydrolase in human HepG2 cells after 30 mins; assay type: cell-based
[7] = Aqueous solubility of the compound at pH 7.4; assay type: physicochemical
[8] = test system: HepG2; experiment: Cytotoxicity against human HepG2 cells up to 100 uM; assay type: cell-based
[9] = molecular target: T3, Cytochrome P450 1A2 (Homo sapiens, UniProt P05177); experiment: Inhibition of CYP1A2; assay type: ADME
T3 sequence (P05177 whole entry): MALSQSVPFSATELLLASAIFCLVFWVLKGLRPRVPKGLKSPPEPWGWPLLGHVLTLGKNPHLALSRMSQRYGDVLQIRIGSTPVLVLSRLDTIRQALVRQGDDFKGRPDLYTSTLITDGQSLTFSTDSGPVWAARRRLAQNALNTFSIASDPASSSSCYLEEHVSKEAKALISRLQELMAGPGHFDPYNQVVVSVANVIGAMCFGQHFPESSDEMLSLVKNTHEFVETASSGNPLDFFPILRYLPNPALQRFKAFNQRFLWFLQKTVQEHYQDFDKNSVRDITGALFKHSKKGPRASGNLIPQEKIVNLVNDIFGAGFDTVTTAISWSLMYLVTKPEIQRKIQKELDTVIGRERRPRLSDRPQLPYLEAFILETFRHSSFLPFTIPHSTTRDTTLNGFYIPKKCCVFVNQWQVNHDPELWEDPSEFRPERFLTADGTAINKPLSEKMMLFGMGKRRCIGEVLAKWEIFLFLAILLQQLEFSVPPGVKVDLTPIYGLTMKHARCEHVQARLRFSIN

Chain of Cytochrome P450 2C19 (P33261 whole entry): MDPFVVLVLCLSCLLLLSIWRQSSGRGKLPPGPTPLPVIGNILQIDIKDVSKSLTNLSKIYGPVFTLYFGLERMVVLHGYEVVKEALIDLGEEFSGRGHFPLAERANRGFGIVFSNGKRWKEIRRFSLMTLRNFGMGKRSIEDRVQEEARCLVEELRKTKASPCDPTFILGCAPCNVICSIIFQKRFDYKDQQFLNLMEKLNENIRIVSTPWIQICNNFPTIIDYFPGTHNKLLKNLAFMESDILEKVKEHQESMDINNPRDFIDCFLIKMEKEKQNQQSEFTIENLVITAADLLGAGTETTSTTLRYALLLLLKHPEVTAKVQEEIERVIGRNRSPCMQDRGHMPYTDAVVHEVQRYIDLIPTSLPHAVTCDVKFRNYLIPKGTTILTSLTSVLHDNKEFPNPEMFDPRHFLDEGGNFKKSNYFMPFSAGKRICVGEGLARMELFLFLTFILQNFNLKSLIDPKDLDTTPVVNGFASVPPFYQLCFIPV

| SMILES | CL [1] [µL/min/mg] | CL [2] [µL/min/mg] | IC50 [3] [µM] | IC50 [4] [µM] | IC50 [5] [µM] | IC50 [6] [µM] | solubility [7] [µg/mL] | IC50 [9] [µM] | Activity [8] |
| --- | --- | --- | --- | --- | --- | --- | --- | --- | --- |
| CC(C)c1noc(C2CCN(C(=O)N[C@H]3C[C@@H]3c3ccccc3)CC2)n1 (racemic) | – | – | – | – | 0.013 | – | – | – | Non-toxic |
| CN(C)c1ccc(CNC(=O)N[C@H]2C[C@@H]2c2ccccc2)cc1 (racemic) | – | > 100 | < 10 | 0.0302 | – | – | – | < 10 | – |
| O=C(NC1CCN(c2ccccc2)CC1)N[C@H]1C[C@@H]1c1ccccc1 (racemic) | – | > 100 | – | 0.00229 | 0.0017 | 0.00794 | < 1 | – | – |

More lines, in order of falling IC50 [4], values ahead:

| CL [1] [µL/min/mg] | CL [2] [µL/min/mg] | IC50 [3] [µM] | IC50 [4] [µM] | IC50 [5] [µM] | IC50 [6] [µM] | solubility [7] [µg/mL] | IC50 [9] [µM] | SMILES | Activity [8] |
| --- | --- | --- | --- | --- | --- | --- | --- | --- | --- |
| – | – | < 10 | 0.0617 | 0.24 | – | < 1 | – | O=C(N[C@H]1C[C@@H]1c1ccccc1)c1ccc2nonc2c1 (racemic) | – |
| > 100 | > 100 | – | 0.0398 | 0.02 | 0.0813 | < 1 | – | Cc1nc2cc(NC(=O)N[C@H]3C[C@@H]3c3ccccc3)ccc2o1 (racemic) | – |
| > 100 | > 100 | < 10 | 0.00646 | 0.00302 | 0.00468 | < 1 | – | COc1cccc2c1CC(C(=O)N[C@H]1C[C@@H]1c1ccccc1)CC2 (mixture of isomers) | – |
